Laboratory results taken from ChEMBL document CHEMBL4229562, “Introduction of a Methyl Group Curbs Metabolism of Pyrido[3,4- d]pyrimidine Monopolar Spindle 1 (MPS1) Inhibitors and Enables the Discovery of the Phase 1 Clinical Candidate N2-(2-Ethoxy-4-(4-methyl-4 H-1,2,4-triazol-3-yl)phenyl)-6-methyl- N8-neopentylpyrido[3,4- d]pyrimidine-2,8-diamine …” (J Med Chem, 2018).
In brackets after ≈: the same amount, converted by molar mass.

Legend:
[1] = Intrinsic clearance in CD1 mouse liver microsomes assessed per mg protein at 1 uM preincubated for 10 mins followed NADPH/UDP-glucuronic acid addition and measured after 30 mins by LC-MS/MS analysis; assay type: ADME, microsome; conditions: 0.5 h
[2] = Intrinsic clearance in human liver microsomes assessed per mg protein at 1 uM preincubated for 10 mins followed NADPH/UDP-glucuronic acid addition and measured after 30 mins by LC-MS/MS analysis; assay type: ADME, microsome; conditions: 0.5 h
[3] = Solubility of the compound in PBS buffer at pH 7.4 by HPLC analysis; assay type: physicochemical
Mus musculus [4] = assay: Half life in mouse at 5 mg/kg, iv by ESI-LCMS/MS analysis; assay type: ADME, organism-based; conditions: in vivo
Rattus norvegicus [5] = assay: Half life in rat at 2.5 mg/kg, iv by ESI-LCMS/MS analysis; assay type: ADME, organism-based; conditions: in vivo
[6] = Clearance in mouse at 5 mg/kg, iv by ESI-LCMS/MS analysis; assay type: ADME, organism-based; conditions: in vivo
[7] = Clearance in rat at 2.5 mg/kg, iv by ESI-LCMS/MS analysis; assay type: ADME, organism-based; conditions: in vivo
[8] = Cmax in rat at 5 mg/kg, po by ESI-LCMS/MS analysis; assay type: ADME, organism-based; parameters: dose 5 mg/kg, route oral; conditions: in vivo
[9] = Cmax in mouse at 5 mg/kg, po by ESI-LCMS/MS analysis; assay type: ADME, organism-based; parameters: dose 5 mg/kg, route oral; conditions: in vivo
[10] = AUClast in mouse at 5 mg/kg, po measured after 6 hrs by ESI-LCMS/MS analysis; assay type: ADME, organism-based; conditions: in vivo
[11] = AUClast in rat at 5 mg/kg, po measured after 24 hrs by ESI-LCMS/MS analysis; assay type: ADME, organism-based; conditions: in vivo
[12] = Protein binding in mouse plasma; assay type: ADME, cell-free
[13] = Volume of distribution at steady state in mouse at 5 mg/kg, iv by ESI-LCMS/MS analysis; assay type: ADME, organism-based; conditions: in vivo, read-out: Vdss
[14] = Volume of distribution at steady state in rat at 2.5 mg/kg, iv by ESI-LCMS/MS analysis; assay type: ADME, organism-based; conditions: in vivo, read-out: Vdss
Mus musculus [15] = assay: Oral bioavailability in mouse at 5 mg/kg by ESI-LCMS/MS analysis; assay type: ADME, organism-based; conditions: in vivo
Rattus norvegicus [16] = assay: Oral bioavailability in rat at 5 mg/kg by ESI-LCMS/MS analysis; assay type: ADME, organism-based; conditions: in vivo
[17] = target: Mitogen-activated protein kinase 8 (Homo sapiens, UniProt P45983); assay: Inhibition of recombinant human full length His-tagged JNK1 expressed in baculovirus expression system by Z'-LYTE assay
[18] = target: Mitogen-activated protein kinase 9 (Homo sapiens, UniProt P45984); assay: Inhibition of recombinant human full length His-tagged JNK2 expressed in baculovirus expression system by Z'-LYTE assay
[19] = target: Mitogen-activated protein kinase 10 (Homo sapiens, UniProt P53779); assay: Inhibition of recombinant human full length N-terminal GST-tagged JNK3 expressed in baculovirus expression system by Z'-LYTE assay
[20] = target: Leucine-rich repeat serine/threonine-protein kinase 2 (Homo sapiens, UniProt Q5S007); assay: Inhibition of recombinant human GST-tagged LRRK2 (970 to 2527 residues) expressed in baculovirus expression system by Z'-LYTE assay
[21] = Dissociation constant, pKa of the compound; assay type: physicochemical
[22] = Lipophilicity, log P of the compound; assay type: physicochemical; conditions: octanol/water
[23] = target: T1, Dual specificity protein kinase TTK (Homo sapiens, UniProt P33981)
T1 sequence (P33981 whole entry): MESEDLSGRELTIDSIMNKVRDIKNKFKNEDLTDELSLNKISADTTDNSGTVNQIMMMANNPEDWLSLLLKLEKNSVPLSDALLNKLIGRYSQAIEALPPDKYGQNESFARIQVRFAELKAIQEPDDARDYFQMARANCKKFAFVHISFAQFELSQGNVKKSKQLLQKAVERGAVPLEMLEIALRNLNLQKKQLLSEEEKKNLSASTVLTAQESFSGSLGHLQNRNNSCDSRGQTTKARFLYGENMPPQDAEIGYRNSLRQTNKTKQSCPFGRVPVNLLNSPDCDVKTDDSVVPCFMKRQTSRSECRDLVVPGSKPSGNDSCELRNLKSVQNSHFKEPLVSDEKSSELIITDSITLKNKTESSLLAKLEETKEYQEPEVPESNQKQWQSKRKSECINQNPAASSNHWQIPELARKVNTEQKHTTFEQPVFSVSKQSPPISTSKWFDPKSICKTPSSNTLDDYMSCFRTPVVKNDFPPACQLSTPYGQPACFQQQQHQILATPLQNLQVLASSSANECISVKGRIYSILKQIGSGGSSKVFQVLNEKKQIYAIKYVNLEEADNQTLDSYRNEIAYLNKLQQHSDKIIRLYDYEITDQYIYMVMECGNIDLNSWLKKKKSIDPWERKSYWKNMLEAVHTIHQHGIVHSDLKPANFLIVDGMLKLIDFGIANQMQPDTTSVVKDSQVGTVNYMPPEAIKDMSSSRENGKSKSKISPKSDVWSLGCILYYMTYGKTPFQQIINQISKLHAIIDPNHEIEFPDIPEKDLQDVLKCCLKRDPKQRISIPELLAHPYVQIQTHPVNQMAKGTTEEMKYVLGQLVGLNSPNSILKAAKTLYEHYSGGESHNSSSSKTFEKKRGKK
Description: Inhibition of full length human N-terminal 6xHis-tagged MPS1 expressed in baculovirus expression system using 5FAM-H236 peptide as substrate after 60 to 90 mins by caliper assay

CDK2/Cyclin A2 = CDK2/Cyclin A2 (Homo sapiens, UniProt P24941)
[24] = target: T1, Dual specificity protein kinase TTK; remark: listed apart in the source
Description: Inhibition of MPS1 autophosphorylation at Thr33/Ser37 in human HCT116 cells after 2 hrs by MSD assay

Chain of Leucine-rich repeat serine/threonine-protein kinase 2 (Q5S007 whole entry, the tested form may be a part): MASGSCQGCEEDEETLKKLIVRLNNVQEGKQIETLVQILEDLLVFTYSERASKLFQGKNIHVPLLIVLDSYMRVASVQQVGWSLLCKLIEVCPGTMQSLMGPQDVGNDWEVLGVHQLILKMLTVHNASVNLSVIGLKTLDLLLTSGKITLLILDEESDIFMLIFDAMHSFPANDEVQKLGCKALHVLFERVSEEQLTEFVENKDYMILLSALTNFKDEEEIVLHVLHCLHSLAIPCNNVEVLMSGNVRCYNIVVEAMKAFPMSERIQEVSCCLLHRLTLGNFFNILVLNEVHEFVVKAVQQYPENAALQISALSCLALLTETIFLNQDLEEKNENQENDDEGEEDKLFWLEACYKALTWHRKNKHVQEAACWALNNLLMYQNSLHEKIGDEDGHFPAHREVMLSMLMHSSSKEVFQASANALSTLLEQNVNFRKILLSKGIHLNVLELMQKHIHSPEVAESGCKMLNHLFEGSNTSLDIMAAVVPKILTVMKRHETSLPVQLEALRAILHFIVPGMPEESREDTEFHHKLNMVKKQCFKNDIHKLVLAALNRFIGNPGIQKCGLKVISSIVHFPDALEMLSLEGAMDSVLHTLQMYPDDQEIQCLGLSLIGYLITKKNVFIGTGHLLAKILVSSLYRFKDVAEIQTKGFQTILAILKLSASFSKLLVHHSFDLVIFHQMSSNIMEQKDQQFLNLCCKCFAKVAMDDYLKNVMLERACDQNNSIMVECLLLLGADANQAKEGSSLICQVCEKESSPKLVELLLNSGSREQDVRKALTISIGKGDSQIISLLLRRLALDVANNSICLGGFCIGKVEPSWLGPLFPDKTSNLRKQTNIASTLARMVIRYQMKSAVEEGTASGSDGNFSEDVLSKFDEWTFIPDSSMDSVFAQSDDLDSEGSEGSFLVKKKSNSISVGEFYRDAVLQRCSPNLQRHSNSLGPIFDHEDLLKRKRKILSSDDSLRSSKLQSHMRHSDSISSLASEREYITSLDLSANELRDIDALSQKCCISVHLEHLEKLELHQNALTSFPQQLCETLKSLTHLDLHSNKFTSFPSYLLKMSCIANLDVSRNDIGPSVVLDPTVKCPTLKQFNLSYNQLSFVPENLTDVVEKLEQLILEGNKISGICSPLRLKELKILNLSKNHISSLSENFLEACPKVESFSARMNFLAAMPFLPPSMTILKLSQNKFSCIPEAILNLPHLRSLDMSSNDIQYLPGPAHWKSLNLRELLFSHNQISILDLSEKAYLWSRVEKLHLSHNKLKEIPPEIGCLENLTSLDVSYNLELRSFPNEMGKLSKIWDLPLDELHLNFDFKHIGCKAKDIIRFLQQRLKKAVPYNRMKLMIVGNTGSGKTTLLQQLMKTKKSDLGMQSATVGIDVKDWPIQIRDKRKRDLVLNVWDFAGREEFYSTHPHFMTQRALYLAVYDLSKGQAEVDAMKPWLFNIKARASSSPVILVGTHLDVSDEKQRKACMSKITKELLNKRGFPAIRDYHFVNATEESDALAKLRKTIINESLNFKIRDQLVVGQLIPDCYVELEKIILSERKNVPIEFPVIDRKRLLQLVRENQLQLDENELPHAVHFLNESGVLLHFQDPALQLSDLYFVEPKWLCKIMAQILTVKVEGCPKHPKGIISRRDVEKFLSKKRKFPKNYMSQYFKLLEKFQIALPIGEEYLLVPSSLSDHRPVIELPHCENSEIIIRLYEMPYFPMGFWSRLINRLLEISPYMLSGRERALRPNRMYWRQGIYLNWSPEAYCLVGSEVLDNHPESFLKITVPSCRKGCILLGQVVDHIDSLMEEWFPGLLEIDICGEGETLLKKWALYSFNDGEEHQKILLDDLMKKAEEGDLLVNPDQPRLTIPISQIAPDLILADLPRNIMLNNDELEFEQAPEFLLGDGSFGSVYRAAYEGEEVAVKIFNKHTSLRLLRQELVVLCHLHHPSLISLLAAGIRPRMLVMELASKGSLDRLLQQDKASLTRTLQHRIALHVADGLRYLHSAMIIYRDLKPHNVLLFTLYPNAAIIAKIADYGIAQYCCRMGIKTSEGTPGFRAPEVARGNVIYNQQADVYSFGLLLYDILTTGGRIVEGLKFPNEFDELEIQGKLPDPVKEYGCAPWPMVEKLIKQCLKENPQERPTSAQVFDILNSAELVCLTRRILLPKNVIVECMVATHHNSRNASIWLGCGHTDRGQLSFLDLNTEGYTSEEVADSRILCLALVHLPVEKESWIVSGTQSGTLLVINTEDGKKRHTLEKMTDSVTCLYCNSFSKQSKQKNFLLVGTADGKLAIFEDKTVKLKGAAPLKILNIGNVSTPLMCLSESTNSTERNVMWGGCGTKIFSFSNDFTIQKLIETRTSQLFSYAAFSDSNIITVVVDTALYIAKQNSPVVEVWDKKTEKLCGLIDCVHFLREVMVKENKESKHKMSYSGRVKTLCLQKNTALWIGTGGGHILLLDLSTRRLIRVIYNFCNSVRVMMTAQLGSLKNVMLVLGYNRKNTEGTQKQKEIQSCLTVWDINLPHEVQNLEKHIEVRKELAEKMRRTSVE
Chain of Mitogen-activated protein kinase 8 (P45983 whole entry): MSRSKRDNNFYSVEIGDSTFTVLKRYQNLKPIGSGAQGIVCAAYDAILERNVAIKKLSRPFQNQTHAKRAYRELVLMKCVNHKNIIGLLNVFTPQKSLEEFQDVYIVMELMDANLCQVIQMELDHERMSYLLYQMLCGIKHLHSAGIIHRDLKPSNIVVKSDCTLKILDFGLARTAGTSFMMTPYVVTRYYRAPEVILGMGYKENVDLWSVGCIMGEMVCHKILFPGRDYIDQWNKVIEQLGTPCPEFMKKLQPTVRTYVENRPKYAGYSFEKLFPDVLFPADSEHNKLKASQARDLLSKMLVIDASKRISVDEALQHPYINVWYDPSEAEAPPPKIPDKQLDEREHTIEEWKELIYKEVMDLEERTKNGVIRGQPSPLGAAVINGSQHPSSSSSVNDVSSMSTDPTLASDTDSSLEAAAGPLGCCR
Chain of Mitogen-activated protein kinase 9 (P45984 whole entry): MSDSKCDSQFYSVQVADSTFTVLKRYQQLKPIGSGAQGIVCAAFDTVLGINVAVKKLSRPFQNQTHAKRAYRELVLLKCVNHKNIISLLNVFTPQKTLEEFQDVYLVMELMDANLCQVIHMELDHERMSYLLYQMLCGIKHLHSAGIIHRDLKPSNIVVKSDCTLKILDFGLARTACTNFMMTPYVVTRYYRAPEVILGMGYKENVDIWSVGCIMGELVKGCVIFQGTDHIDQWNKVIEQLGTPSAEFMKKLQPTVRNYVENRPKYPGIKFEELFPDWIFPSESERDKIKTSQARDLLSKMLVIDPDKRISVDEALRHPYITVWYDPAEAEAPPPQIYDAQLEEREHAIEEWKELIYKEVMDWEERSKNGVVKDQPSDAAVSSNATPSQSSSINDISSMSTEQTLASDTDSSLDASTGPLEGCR
Chain of Mitogen-activated protein kinase 10 (P53779 whole entry, the tested form may be a part): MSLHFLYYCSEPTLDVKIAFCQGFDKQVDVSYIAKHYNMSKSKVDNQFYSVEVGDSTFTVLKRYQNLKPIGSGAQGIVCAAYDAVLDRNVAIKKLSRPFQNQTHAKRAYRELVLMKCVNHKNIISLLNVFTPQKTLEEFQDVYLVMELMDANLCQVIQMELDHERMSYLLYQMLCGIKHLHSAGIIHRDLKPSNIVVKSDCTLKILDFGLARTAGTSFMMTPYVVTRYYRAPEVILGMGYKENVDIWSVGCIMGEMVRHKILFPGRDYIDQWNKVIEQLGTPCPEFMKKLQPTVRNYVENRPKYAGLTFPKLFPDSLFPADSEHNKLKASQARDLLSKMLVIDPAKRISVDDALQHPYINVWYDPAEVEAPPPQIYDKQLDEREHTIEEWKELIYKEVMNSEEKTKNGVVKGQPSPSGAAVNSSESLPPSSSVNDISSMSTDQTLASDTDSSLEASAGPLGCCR

CCOc1cc(-c2nncn2C)ccc1Nc1ncc2cc(C)nc(NCC(C)(C)C)c2n1 [BOS-172722]
CLH [1]: 26.3 µL/min/mg | CLH [2]: 8 µL/min/mg | solubility [3]: 6.6 µM (≈ 2.95 µg/mL) | t1/2 (Mus musculus [4]): 2.68 h | t1/2 (Rattus norvegicus [5]): 4.66 h | clearance [6]: 10.9 mL/min/kg | clearance [7]: 10.1 mL/min/kg | Cmax [8]: 813 nM | Cmax [9]: 2760 nM | AUC(0-t) at 6 h [10]: 11 µM·h | AUC(0-t) at 24 h [11]: 11.3 µM·h | PPB [12]: 99.85% | Vd [13]: 2.46 L/kg | Vd [14]: 3.52 L/kg | F (Mus musculus [15]): 81% | F (Rattus norvegicus [16]): 63% | IC50 [17]: 92 nM | IC50 [18]: 76 nM | IC50 [19]: 242 nM | IC50 [20]: 48 nM | pKa [21]: 2.63 to 6.22 | logP [22]: 4.23 | IC50 [23]: 11 nM | Ki [23]: 0.11 nM | IC50 (CDK2/Cyclin A2): 1020 nM | Ki (CDK2/Cyclin A2): 510 nM | IC50 [24]: 63 nM
